Key:
[1] = target: T1, recombinant human Mcl-1 (Homo sapiens, UniProt Q07820); test: Cell free Mcl-1:Bim affinity assay (Mcl-1 HTRF, TR-FRET); format: binding; conditions: inhibition of Mcl-1/Bim interaction
T1 construct: C-terminally 6×His tagged Mcl-1 containing residues 171-327; made in house
Description: Cell Free Mcl-1:Bim Affinity Assay (Mcl-1 HTRF)
The inhibition of the Mcl-1/Bim interaction was measured using a time-resolved fluorescence resonance energy transfer (TR-FRET) assay. […] A biotinylated peptide derived from human Bim (residues 51-76) was purchased from CPC Scientific (San Jose, Calif.). The TR-FRET assay was conducted in a 384-well white OptiPlate™ (PerkinElmer, Waltham, Mass.) in a total volume of 40 μL. […] The reaction plates were further incubated overnight and then were read on an Envision® multimode reader (PerkinElmer). […] The IC50 values of test compounds were determined from duplicate data by analyzing competition curves using a four-parameter sigmoidal model in GraphPad Prism (GraphPad Software, San Diego, Calif.) or in Genedata Screener® (Genedata, Basel, Switzerland).

[2] = test system: OPM-2; test: Cell viability assay (OPM-2 10 FBS, CellTiter-Glo); format: cell-based, human; conditions: OPM-2 cells
Description: Cell Viability Assay (OPM-2 10 FBS)
Cells were seeded into 384-well plates at 3000 cells/well density in complete growth medium containing 10% FBS, and incubated for 16 h with serially diluted test compounds in a 37° C. incubator with 5% CO2. Cell viability was tested using CellTiter-Glo® assay (Promega, Madison, Wis.) according to the manufacturer recommendations. Luminescence was determined using an EnVision® Multilabel plate reader 25 min after the addition of detection reagent. IC50 values were then calculated with Xlfit using a logistical 4-parameter fit model in GraphPad Prism (GraphPad Software, San Diego, Calif.) or in Genedata Screener® (Genedata, Basel, Switzerland).

[3] = target: T2, Mcl-1/Bak protein-protein interactions (Homo sapiens, UniProt Q07820); test: Cell-based split luciferase complementation assay; conditions: HEK 293 M cells, serum-free, 4 h
T2 construct: expressed in transfected cells; host or cells: HEK 293 M cells, transient transfection
Description: Cell-Based Assay (Split Luciferase)
A split luciferase complementation assay was developed to determine the inhibition of Mcl-1/Bak protein-protein interactions in cells. […] Transient transfection was performed using Lipofectamine® LTX/Plus™ reagent (Life Technologies, Grand Island, N.Y.). 24 h after transfection, cells were collected using non-enzyme based cell dissociation buffer StemPro® Accutase® (Life Technologies), and resuspended in serum-free Opti-MEM® (Life Technologies). Cells were then seeded into assay plates with serially diluted test compounds in 0.3% DMSO at density of a 5000 cells/well. Cells were then incubated for 4 h at 37° C. in a cell culture incubator supplement with 5% CO2. Test plates were equilibrated to room temperate for 30 min before addition of 30 μL Steady-Glo® Luciferase assay reagent (Promega, Madison, Wis.) into each test well. Luminescence was determined using an EnVision® Multilabel plate reader 25 min after the addition of detection reagent. IC50 values were then calculated with Xlfit using a logistical 4-parameter fit model in GraphPad Prism (GraphPad Software, San Diego, Calif.) or in Genedata Screener® (Genedata, Basel, Switzerland).

T1 sequence (Q07820 171-327): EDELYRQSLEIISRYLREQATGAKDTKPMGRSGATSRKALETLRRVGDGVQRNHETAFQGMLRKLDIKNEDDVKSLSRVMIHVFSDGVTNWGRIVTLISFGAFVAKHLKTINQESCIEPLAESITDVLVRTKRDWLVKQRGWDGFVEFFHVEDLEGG
T2 sequence (Q07820 whole entry): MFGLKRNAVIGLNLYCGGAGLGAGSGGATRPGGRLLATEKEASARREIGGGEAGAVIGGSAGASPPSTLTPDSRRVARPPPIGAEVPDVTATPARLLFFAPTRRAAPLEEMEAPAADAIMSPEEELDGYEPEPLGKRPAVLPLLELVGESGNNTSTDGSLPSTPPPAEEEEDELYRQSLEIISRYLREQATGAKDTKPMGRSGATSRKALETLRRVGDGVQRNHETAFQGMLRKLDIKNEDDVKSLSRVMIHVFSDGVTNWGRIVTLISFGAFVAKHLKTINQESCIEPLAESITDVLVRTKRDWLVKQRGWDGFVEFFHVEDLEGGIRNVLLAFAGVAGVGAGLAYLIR

Compound | IC50 [1] [nM] | IC50 [3] [nM] | IC50 ([2]; Homo sapiens, OPM-2, 16 h) [nM] | further results
CC[C@H]1CC/C=C/[C@H](O)[C@@H]2CC[C@H]2CN2C[C@@]3(CCCc4cc(Cl)ccc43)COc3ccc(cc32)C(=O)NS1(=O)=O (single isomer, unassigned) [Example 19] | – | – | 3990 | –
CC[C@H]1CCCC[C@H](O)[C@@H]2CC[C@H]2CN2C[C@@]3(CCCc4cc(Cl)ccc43)COc3ccc(cc32)C(=O)NS1(=O)=O [Example 23, (1S,3′R,6′R,7′S,12′S)-6-Chloro-12′-Ethyl-7′-Hydroxy-3,4-Dihydro-2H,15′H-Spiro[Naphthalene-1,22′-[20]Oxa[13]Thia[1,14]Diazatetracyclo[14.7.2.0^3,6.0^19,24]Pentacos A[16,18,24]Trien]-15′-One 13′,13′-Dioxide] | 3.68 | 372 | – | –
CO[C@H]1/C=C/C[C@H](C)[C@@H](C)S(=O)(=O)NC(=O)c2ccc3c(c2)N(C[C@@H]2CC[C@H]21)C[C@@]1(CCCc2cc(Cl)ccc21)CO3 [Example 4, (1S,3′R,6′R,7′S,8′E,11′S,12′R)-6-Chloro-7′-Methoxy-11′,12′-Dimethyl-3,4-Dihydro-2H,15′H-Spiro[Naphthalene-1,22′-[20]Oxa[13]Thia[1,14]Diazatetracyclo[14.7.2.0^3,6.0^19,24]Pentacos A[8,16,18,24]Tetraen]-15′-One-13′, 13′-Dioxide] | – | – | – | IC50 ([2]; Homo sapiens, 16 h): 236 nM
CO[C@H]1/C=C\C[C@H](C)[C@@H](C)S(=O)(=O)NC(=O)c2ccc3c(c2)N(C[C@@H]2CC[C@H]21)C[C@@]1(CCCc2cc(Cl)ccc21)CO3 [Example 5, (1S,3′R,6′R,7′S,8′Z,11′S,12′R)-6-Chloro-7′-Methoxy-11′,12′-Dimethyl-3,4-Dihydro-2H,15′H-Spiro[Naphthalene-1,22′-[20]Oxa[13]Thia[1,14]Diazatetracyclo[14.7.2.0^3,6.0^19,24]Pentacos A[8,16,18,24]Tetraen]-15′-One 13′,13′-Dioxide] | – | – | 1140 | –
CC[C@@H]1CC/C=C/[C@H](O)[C@@H]2CC[C@H]2CN2C[C@@]3(CCCc4cc(Cl)ccc43)COc3ccc(cc32)C(=O)NS1(=O)=O (single isomer, unassigned) [Example 17] | – | – | 260 | –
CC[C@@H]1CC/C=C\[C@H](O)[C@@H]2CC[C@H]2CN2C[C@@]3(CCCc4cc(Cl)ccc43)COc3ccc(cc32)C(=O)NS1(=O)=O (single isomer, unassigned) [Example 18] | – | – | 694 | –

Now from value to molecule, other results behind:

IC50 [1] [nM] | IC50 [3] [nM] | Compound | IC50 ([2]; Homo sapiens, OPM-2, 16 h) [nM] | further results
8.66 | 425 | CCC[C@@H]1[C@@H](C)C/C=C/[C@H](O)[C@@H]2CC[C@H]2CN2C[C@@]3(CCCc4cc(Cl)ccc43)COc3ccc(cc32)C(=O)NS1(=O)=O (single isomer, unassigned) [Example 69] | – | IC50 ([2]; 16 h): 2710 nM
7.55 | 850 | CC1(C)CCCC[C@H](O)[C@@H]2CC[C@H]2CN2C[C@@]3(CCCc4cc(Cl)ccc43)COc3ccc(cc32)C(=O)NS1(=O)=O [Example 42] | – | –
10.7 | – | C[C@@H]1CCC[C@H](O)[C@@H]2CC[C@H]2CN2C[C@@]3(CCCc4cc(Cl)ccc43)COc3ccc(cc32)C(=O)NS(=O)(=O)C1 (single isomer, unassigned) [Example 39] | – | –
– | 1040 | C[C@H]1CCC[C@H](O)[C@@H]2CC[C@H]2CN2C[C@@]3(CCCc4cc(Cl)ccc43)COc3ccc(cc32)C(=O)NS(=O)(=O)C1 (single isomer, unassigned) [Example 38] | – | –
– | 667 | C[C@H]1CCC[C@H](O)[C@@H]2CC[C@H]2CN2C[C@@]3(CCCc4cc(Cl)ccc43)COc3ccc(cc32)C(=O)NS(=O)(=O)[C@H]1C [Example 37, (1S,3′R,6′R,7′S,11′S,12′S)-6-Chloro-7′-Hydroxy-11,12′-Dimethyl-3,4-Dihydro-2H,15′H-Spiro[Naphthalene-1,22′-[20]Oxa[13]Thia[1,14]Diazatetracyclo[14.7.2.0^3,6.0^19,24]Pentacos A[16,18,24]Trien]-15′-One 13′,13′-Dioxide] | 5740 | –
44.5 | 1500 | C[C@@H]1CCC[C@H](O)[C@@H]2CC[C@H]2CN2C[C@@]3(CCCc4cc(Cl)ccc43)COc3ccc(cc32)C(=O)NS(=O)(=O)[C@H]1C (single isomer, unassigned) [Example 36] | – | –

— patent US11685747B2, “Compounds that inhibit MCL-1 protein” (AMGEN INC., priority 2014, dated 2023)
